Test systems include RPMI-8226; PC-3; SNB-19; K562; A498; HCT-15; HOP-92; NCI-H522; BT-549; CAKI-1; A549; OVCAR-8; CCRF-CEM; SF-539; UACC-62; OVCAR-3; EKVX; MDA-N; OVCAR-4.
What all share (test): NCI anticancer screen, dose series, 48 h

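Briefly, cells in 96-well plates were exposed to five compound concentrations for 48 h, and endpoints were estimated by linear interpolation. Here, GI50 denotes the concentration required for 50% inhibition of growth.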 Active and inactive are the calls of the source. No stated cut-off is given here; in the data, active = GI50 up to about 1.1 µM and inactive = higher. A value given as a limit tells only on which side of the number the result lay.

As to `Cn1c(=O)oc2cc(C(=O)CSC(=S)N3CCCCCC3)ccc21`, the GI50 is > 100 µM (inactive) with RPMI-8226; 99.1 µM (inactive) in the experiment with PC-3; > 100 µM (inactive) with SNB-19; 57.1 µM (inactive) in the experiment on K562; 6.93 µM (inactive) with A498; 81.1 µM with HCT-15. Moreover, the GI50 in the experiment with HOP-92, with NCI-H522, with BT-549, with CAKI-1, in the experiment on A549 and with OVCAR-8 was > 100 µM (inactive) throughout. The GI50 with CCRF-CEM is 75.5 µM (inactive); in the experiment with SF-539, > 100 µM (inactive); in the experiment with UACC-62, > 100 µM (inactive); in the experiment with OVCAR-3 it was > 100 µM (inactive); in the experiment on EKVX, > 100 µM (inactive); in the experiment with MDA-N, > 100 µM (inactive). Moreover, the GI50 in the experiment on OVCAR-4 is > 100 µM (inactive).
On to `O=c1c2c(c1=O)C1(SCCCS1)c1cc(Cl)ccc1O2`, for which the GI50 with RPMI-8226 is > 100 µM (inactive); with PC-3, > 100 µM (inactive); with SNB-19, > 100 µM (inactive); in the experiment on K562, > 100 µM (inactive); with A498, > 100 µM (inactive); with HCT-15, over 100 µM. In addition, the GI50 in the experiment on HOP-92, with NCI-H522, in the experiment on BT-549, in the experiment with CAKI-1, with A549 and with OVCAR-8 was > 100 µM (inactive) each time. Besides, the GI50 in the experiment on CCRF-CEM, in the experiment with SF-539, with UACC-62, in the experiment on OVCAR-3, in the experiment with EKVX and with MDA-N was > 100 µM (inactive) in each case. Moreover, the GI50 in the experiment with OVCAR-4 is > 100 µM (inactive).
With `C=CC(C)CCC(C/C=C(\C)CCC=C(C)C)C(=C)CCCC(C)C` (stereo unspecified), the GI50 in the experiment with RPMI-8226 was > 100 µM (inactive); with PC-3 it was > 100 µM (inactive); in the experiment on SNB-19, > 100 µM (inactive); in the experiment on K562 it was > 100 µM (inactive); with A498, > 100 µM (inactive); with HCT-15, over 100 µM. Also, the GI50 in the experiment with HOP-92, in the experiment on NCI-H522, with BT-549, in the experiment with CAKI-1, with A549 and in the experiment with OVCAR-8 was > 100 µM (inactive) throughout. Moreover, the GI50 in the experiment on CCRF-CEM, with SF-539, in the experiment on UACC-62, with OVCAR-3, in the experiment on EKVX and in the experiment on MDA-N was > 100 µM (inactive) throughout. For the same molecule, in the experiment on OVCAR-4, the GI50 is > 100 µM (inactive).
For `CN1C(=O)C(CC(=O)O)NC1=S` (stereo unspecified), the GI50 was > 100 µM (inactive) with RPMI-8226; > 100 µM (inactive) in the experiment on PC-3; > 100 µM (inactive) with SNB-19; > 100 µM (inactive) with K562; > 100 µM (inactive) with A498; over 100 µM in the experiment on HCT-15. For the same molecule, the GI50 in the experiment on HOP-92, in the experiment on NCI-H522, with BT-549, with CAKI-1, with A549 and with OVCAR-8 was > 100 µM (inactive) throughout. In addition, the GI50 was > 100 µM (inactive) in the experiment with CCRF-CEM; > 100 µM (inactive) in the experiment on SF-539; > 100 µM (inactive) with UACC-62; > 100 µM (inactive) in the experiment on OVCAR-3; 56.6 µM (inactive) in the experiment on EKVX; > 100 µM (inactive) in the experiment on MDA-N.
Regarding `C=CC[C@H]1[C@H](O[Si](C)(C)C(C)(C)C)C=CC(=O)[C@@H]1CC(=O)OCC`, the GI50 in the experiment on RPMI-8226 is 2.31 µM (inactive); with PC-3 it was 9.59 µM (inactive); in the experiment on SNB-19, 13 µM (inactive); with K562, 3.13 µM (inactive); with A498 it was 13.7 µM (inactive); with HCT-15, 13.5 µM. Further, the GI50 in the experiment on HOP-92 was 11.5 µM (inactive); in the experiment on NCI-H522 it was 12.5 µM (inactive); in the experiment on BT-549, 16.5 µM (inactive); in the experiment with CAKI-1, 12.4 µM (inactive); with A549, 11.7 µM (inactive); with OVCAR-8, 16.4 µM (inactive). Besides, the GI50 in the experiment with CCRF-CEM is 12 µM (inactive); in the experiment on SF-539 it was 17.1 µM (inactive); in the experiment with UACC-62, 11.9 µM (inactive); with OVCAR-3, 13.1 µM (inactive); with EKVX, 11.9 µM (inactive); in the experiment on MDA-N, 15.7 µM (inactive). Further, the GI50 in the experiment on OVCAR-4 was 11.8 µM (inactive).
Take `Fc1cc(C2=C[C@H](c3ccc4c(c3)OCO4)NC(=S)N2)c(Cl)cc1Cl`: the GI50 in the experiment with RPMI-8226 was 22.9 µM (inactive); with PC-3, 21.4 µM (inactive); in the experiment with SNB-19, 57.4 µM (inactive); in the experiment on K562, 32.1 µM (inactive); in the experiment on A498, 20.8 µM (inactive); with HCT-15, 37.4 µM. Besides, the GI50 with HOP-92 was 25.9 µM (inactive); in the experiment with NCI-H522, 31.6 µM (inactive); in the experiment on BT-549, 57 µM (inactive); in the experiment on CAKI-1 it was 34.8 µM (inactive); in the experiment on A549, 35.6 µM (inactive); in the experiment on OVCAR-8, 41.2 µM (inactive). Moreover, the GI50 in the experiment with CCRF-CEM was 21.8 µM (inactive); with SF-539, 46.7 µM (inactive); in the experiment with UACC-62, 35.9 µM (inactive); in the experiment with OVCAR-3, 30.2 µM (inactive); in the experiment on EKVX it was 22.2 µM (inactive); in the experiment with MDA-N, 35.6 µM (inactive). Further, the GI50 in the experiment on OVCAR-4 is 38.1 µM (inactive).
On to `COc1c(Br)cc2c(c1OC)C(Br)CCC(Br)(Br)C2=O` (stereo unspecified), for which the GI50 with RPMI-8226 is 1.34 µM (inactive); in the experiment with PC-3, 1.44 µM (inactive); in the experiment on SNB-19, 4.36 µM (inactive); with K562 it was 0.377 µM (active); in the experiment with A498 it was 3.32 µM (inactive); in the experiment on HCT-15, 0.314 µM. Further, the GI50 with HOP-92 was 3.3 µM (inactive); in the experiment on NCI-H522, 0.393 µM (active); with BT-549, 0.527 µM (active); in the experiment with CAKI-1, 2.77 µM (inactive); with A549 it was 4.34 µM (inactive); in the experiment on OVCAR-8, 0.378 µM (active). Further, the GI50 was 1.85 µM (inactive) in the experiment with SF-539; 3.18 µM (inactive) in the experiment on UACC-62; 1.14 µM (inactive) with OVCAR-3; 3.93 µM (inactive) in the experiment on EKVX; 0.242 µM (active) in the experiment with MDA-N; 1.65 µM (inactive) in the experiment on OVCAR-4.
In the case of `Cc1nn(C2OC(CO)C(O)C(F)C2O)c(=O)[nH]c1=O` (stereo unspecified), the GI50 was > 100 µM (inactive) in the experiment on RPMI-8226; > 100 µM (inactive) with PC-3; > 100 µM (inactive) in the experiment on SNB-19; > 100 µM (inactive) with K562; > 100 µM (inactive) with A498; over 100 µM with HCT-15. Moreover, the GI50 with HOP-92, with NCI-H522, in the experiment with BT-549, in the experiment on CAKI-1, with A549 and in the experiment on OVCAR-8 was > 100 µM (inactive) each time. Also, the GI50 with CCRF-CEM, in the experiment with SF-539, in the experiment with UACC-62, with OVCAR-3, with MDA-N and with OVCAR-4 was > 100 µM (inactive) each time.
Turning to `OC1CN2Cc3cc4c(cc3[C@]13C=C[C@@H](O)CC23)OCO4` (stereo partly specified), the GI50 is 32.6 µM (inactive) in the experiment with RPMI-8226; 27.6 µM (inactive) in the experiment on PC-3; 22.2 µM (inactive) with SNB-19; 23.7 µM (inactive) in the experiment on K562; 34.4 µM (inactive) in the experiment with A498; 30.3 µM with HCT-15. Further, the GI50 in the experiment on HOP-92 was 21.3 µM (inactive); in the experiment on NCI-H522, 27.3 µM (inactive); in the experiment on BT-549, 33.4 µM (inactive); in the experiment with CAKI-1, 11.9 µM (inactive); in the experiment with A549, 19.5 µM (inactive); in the experiment with OVCAR-8, 29.2 µM (inactive). Moreover, the GI50 in the experiment with CCRF-CEM is 8.57 µM (inactive); in the experiment on SF-539, 45.6 µM (inactive); in the experiment on UACC-62, 33 µM (inactive); in the experiment with OVCAR-3, 37.2 µM (inactive); in the experiment with EKVX it was 15.4 µM (inactive); in the experiment on MDA-N, 17 µM (inactive). Also, in the experiment on OVCAR-4, the GI50 is 19.8 µM (inactive).
Turning to `CO/C=C(/C(=O)OC)c1ccccc1[C@H]1C[C@@H]1c1ccccc1`, the GI50 is 12.6 µM (inactive) in the experiment with RPMI-8226; 22.8 µM (inactive) in the experiment with PC-3; 48.3 µM (inactive) with SNB-19; 26.2 µM (inactive) in the experiment on K562; 27.9 µM (inactive) with A498; 23.4 µM in the experiment on HCT-15. Also, the GI50 is 21.3 µM (inactive) in the experiment with HOP-92; 12.9 µM (inactive) with NCI-H522; 20.5 µM (inactive) in the experiment on BT-549; 16 µM (inactive) in the experiment on CAKI-1; 21.1 µM (inactive) with A549; 28.7 µM (inactive) in the experiment with OVCAR-8. Also, the GI50 in the experiment with CCRF-CEM was 10.6 µM (inactive); in the experiment with SF-539, 21.2 µM (inactive); in the experiment on UACC-62, 14.9 µM (inactive); in the experiment with OVCAR-3, 18.5 µM (inactive); with EKVX it was 15.4 µM (inactive); with MDA-N, 18.7 µM (inactive). Also, in the experiment with OVCAR-4, the GI50 was 17.8 µM (inactive).
Take `C[n+]1c(-c2ccc(/C=N\NC(=O)c3ccc(C(=O)N/N=C/c4ccc(-c5cn6ccsc6[n+]5C)cc4)cc3)cc2)cn2ccsc21`: the GI50 is 14.2 µM (inactive) in the experiment on RPMI-8226; 17.4 µM (inactive) in the experiment on PC-3; 24.6 µM (inactive) in the experiment on SNB-19; 14 µM (inactive) in the experiment on K562; 17.3 µM (inactive) in the experiment on A498; 16 µM in the experiment with HCT-15. The GI50 in the experiment on HOP-92 is 14.8 µM (inactive); with NCI-H522, 31.1 µM (inactive); in the experiment on BT-549, 16.5 µM (inactive); in the experiment on CAKI-1, 18.7 µM (inactive); in the experiment with A549 it was 24.5 µM (inactive); with OVCAR-8 it was 14.8 µM (inactive). The GI50 in the experiment with CCRF-CEM is 25.4 µM (inactive); with SF-539, 23.6 µM (inactive); in the experiment on UACC-62 it was 20 µM (inactive); with OVCAR-3, 11.6 µM (inactive); in the experiment on EKVX, 15.8 µM (inactive); in the experiment on MDA-N it was 32.8 µM (inactive). Moreover, the GI50 in the experiment on OVCAR-4 is 28.8 µM (inactive).
